According to PubChem BioAssay AID328 (DTP/NCI, 2004):
Values joined by “and” are separate entries in the source; they are usually repeats but may differ in a detail not shown here. Identical values can stand only once. Toxic doses and inconclusive results are not listed.

System: BDF1 mice, P388 leukemia ip, median survival T/C
Experiment: NCI In Vivo Anticancer Drug Screen. Data for tumor model P388 Leukemia (intraperitoneal) in B6D2F1 (BDF1) mice
Conditions: endpoint: median survival time, higher = longer survival
Procedure, shortened: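 Each value expresses how treatment altered survival: treated-mouse outcome over vehicle-mouse outcome, both groups bearing the transplanted tumour.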

[1] = dose: 2.0 mg/kg/injection, schedule: Q01DX009 (ip), vehicle: saline with Tween-80
[2] = dose: 25.0 mg/kg/injection, schedule: Q04DX003 (ip), vehicle: saline
[3] = dose: 50.0 mg/kg/injection, schedule: Q04DX003 (ip), vehicle: saline
[4] = dose: 50.0 mg/kg/injection, schedule: Q01DX009 (ip), vehicle: saline with Tween-80
[5] = dose: 100.0 mg/kg/injection, schedule: Q01DX009 (ip), vehicle: saline with Tween-80
[6] = dose: 200.0 mg/kg/injection, schedule: Q01DX009 (ip), vehicle: saline with Tween-80
[7] = dose: 100.0 mg/kg/injection, schedule: Q04DX003 (ip), vehicle: Klucel (hydroxypropylcellulose) (HPC)
[8] = dose: 200.0 mg/kg/injection, schedule: Q04DX003 (ip), vehicle: Klucel (hydroxypropylcellulose) (HPC)
[9] = dose: 400.0 mg/kg/injection, schedule: Q04DX003 (ip), vehicle: Klucel (hydroxypropylcellulose) (HPC)
[10] = dose: 100.0 mg/kg/injection, schedule: Q04DX003 (ip), vehicle: saline with Tween-80
[11] = dose: 12.5 mg/kg/injection, schedule: Q04DX003 (ip), vehicle: saline
[12] = dose: 25.0 mg/kg/injection, schedule: Q01DX009 (ip), vehicle: Klucel (hydroxypropylcellulose) (HPC)
[13] = dose: 400.0 mg/kg/injection, schedule: Q04DX003 (ip), vehicle: saline with Tween-80
[14] = dose: 100.0 mg/kg/injection, schedule: Q01DX009 (ip), vehicle: Klucel (hydroxypropylcellulose) (HPC)

COc1cc(NS(C)(=O)=O)ccc1Nc1c2ccc([N+](=O)[O-])cc2nc2c(C)c(C)ccc12
T/C (dose: 0.29 mg/kg/injection, schedule: Q04DX003 (ip), vehicle: saline with Tween-80): 112 % of control
T/C (dose: 0.44 mg/kg/injection, schedule: Q04DX003 (ip), vehicle: saline with Tween-80): 154 % of control
T/C (dose: 0.88 mg/kg/injection, schedule: Q01DX009 (ip), vehicle: saline with Tween-80): 185 % of control
T/C (dose: 1.0 mg/kg/injection, schedule: Q04DX003 (ip), vehicle: saline with Tween-80): 154 % of control
T/C (dose: 1.33 mg/kg/injection, schedule: Q01DX009 (ip), vehicle: saline with Tween-80): 203 % of control
T/C [1]: 254 % of control
T/C (dose: 2.66 mg/kg/injection, schedule: Q01DX009 (ip), vehicle: saline with Tween-80): 269 % of control
T/C (dose: 3.0 mg/kg/injection, schedule: Q01DX009 (ip), vehicle: saline with Tween-80): 273 % of control
T/C (dose: 4.0 mg/kg/injection, schedule: Q01DX009 (ip), vehicle: saline with Tween-80): 272 % of control
T/C (dose: 6.0 mg/kg/injection, schedule: Q01DX009 (ip), vehicle: saline with Tween-80): 211 % of control
T/C (dose: 9.0 mg/kg/injection, schedule: Q01DX009 (ip), vehicle: saline with Tween-80): 295 % of control
T/C (dose: 22.0 mg/kg/injection, schedule: Q04DX003 (ip), vehicle: saline with Tween-80): 236 % of control and 281 % of control
T/C [2]: 260 % of control
T/C (dose: 33.0 mg/kg/injection, schedule: Q04DX003 (ip), vehicle: saline with Tween-80): 272 % of control and 281 % of control
T/C (dose: 50.0 mg/kg/injection, schedule: Q04DX003 (ip), vehicle: saline with Tween-80): 272 % of control and 281 % of control
T/C [3]: 230 % of control
T/C (dose: 75.0 mg/kg/injection, schedule: Q04DX003 (ip), vehicle: saline with Tween-80): 272 % of control and 122 % of control
T/C (dose: 100.0 mg/kg/injection, schedule: Q04DX003 (ip), vehicle: saline): 95 % of control

CCOC(=O)CC1=NN(C(=O)c2ccccc2)C(=NC(=O)c2ccccc2)SC1
T/C [4]: 99 % of control
T/C [5]: 101 % of control
T/C [6]: 90 % of control

CC(C)(C)OC(=O)C(CC(=O)O)=C(c1ccccc1)c1ccccc1
T/C [7]: 95 % of control
T/C [8]: 108 % of control
T/C [9]: 95 % of control

CN(c1ccccc1)S(=O)(=O)c1ccccc1
T/C [10]: 95 % of control

CC1(C)CN(C(C)(C)C)CC(C)(C)C(=O)C1=O
T/C [11]: 90 % of control
T/C [2]: 95 % of control
T/C [3]: 95 % of control

CCCCCCCCCCCCCCCCCC[n+]1cccc(C2CCCN2C)c1 (stereo unspecified) (tested in a mixture with another compound)
T/C [12]: 119 % of control

COC1=C(N2CC2)C(=O)C(OC)=C(N2CC2)C1=O
T/C (dose: 0.5 mg/kg/injection, schedule: Q01DX009 (ip), vehicle: Klucel (hydroxypropylcellulose) (HPC)): 217 % of control
T/C (dose: 0.5 mg/kg/injection, schedule: Q01DX009 (ip), vehicle: saline): 162 % of control
T/C (dose: 0.8 mg/kg/injection, schedule: Q04DX003 (ip), vehicle: saline with Tween-80): 170 % of control
T/C (dose: 1.0 mg/kg/injection, schedule: Q01DX009 (ip), vehicle: Klucel (hydroxypropylcellulose) (HPC)): 234 % of control
T/C (dose: 1.0 mg/kg/injection, schedule: Q01DX009 (ip), vehicle: saline with Tween-80): 179 % of control
T/C (dose: 1.0 mg/kg/injection, schedule: Q01DX009 (ip), vehicle: saline): 201 % of control
T/C (dose: 1.8 mg/kg/injection, schedule: Q04DX003 (ip), vehicle: saline with Tween-80): 154 % of control
T/C (dose: 2.0 mg/kg/injection, schedule: Q01DX009 (ip), vehicle: Klucel (hydroxypropylcellulose) (HPC)): 285 % of control
T/C [1]: 91 % of control
T/C (dose: 2.0 mg/kg/injection, schedule: Q01DX009 (ip), vehicle: saline): 252 % of control
T/C (dose: 2.6 mg/kg/injection, schedule: Q04DX003 (ip), vehicle: saline with Tween-80): 173 % of control
T/C (dose: 4.0 mg/kg/injection, schedule: Q01DX009 (ip), vehicle: Klucel (hydroxypropylcellulose) (HPC)): 326 % of control
T/C (dose: 4.0 mg/kg/injection, schedule: Q01DX009 (ip), vehicle: saline): 92 % of control
T/C (dose: 4.0 mg/kg/injection, schedule: Q04DX003 (ip), vehicle: saline with Tween-80): 165 % of control
T/C (dose: 6.0 mg/kg/injection, schedule: Q04DX003 (ip), vehicle: saline with Tween-80): 200 % of control

CCOC(=O)C1c2cccc(O)c2C=CN1C(C)=O (stereo unspecified)
T/C [10]: 91 % of control
T/C (dose: 200.0 mg/kg/injection, schedule: Q04DX003 (ip), vehicle: saline with Tween-80): 91 % of control
T/C [13]: 95 % of control

CCC(C)NCCNCCNC(C)CC (stereo unspecified)
T/C (dose: 6.25 mg/kg/injection, schedule: Q04DX003 (ip), vehicle: saline): 95 % of control
T/C [11]: 95 % of control
T/C [2]: 104 % of control

COc1ccc2nc(NCN3C(=O)c4ccccc4C3=O)sc2c1
T/C (dose: 100.0 mg/kg/injection, schedule: Q01DX001 (ip), vehicle: Klucel (hydroxypropylcellulose) (HPC)): 104 % of control
T/C [14]: 109 % of control
T/C [7]: 100 % of control
T/C (dose: 200.0 mg/kg/injection, schedule: Q01DX001 (ip), vehicle: Klucel (hydroxypropylcellulose) (HPC)): 100 % of control
T/C (dose: 200.0 mg/kg/injection, schedule: Q01DX009 (ip), vehicle: Klucel (hydroxypropylcellulose) (HPC)): 104 % of control
T/C [8]: 100 % of control
T/C (dose: 400.0 mg/kg/injection, schedule: Q01DX001 (ip), vehicle: Klucel (hydroxypropylcellulose) (HPC)): 95 % of control
T/C (dose: 400.0 mg/kg/injection, schedule: Q01DX009 (ip), vehicle: Klucel (hydroxypropylcellulose) (HPC)): 104 % of control
T/C [9]: 100 % of control

CC(C)c1ccc(N2C(N)=NC(N)=NC2(C)C)cc1
T/C (dose: 12.5 mg/kg/injection, schedule: Q01DX005 (ip), vehicle: Klucel (hydroxypropylcellulose) (HPC)): 110 % of control
T/C (dose: 25.0 mg/kg/injection, schedule: Q01DX005 (ip), vehicle: Klucel (hydroxypropylcellulose) (HPC)): 108 % of control
T/C (dose: 50.0 mg/kg/injection, schedule: Q01DX005 (ip), vehicle: Klucel (hydroxypropylcellulose) (HPC)): 105 % of control

O=C(Oc1ccc(Cl)cc1)c1ccc(C(=O)Oc2ccc(Cl)cc2)cc1
T/C (dose: 176.0 mg/kg/injection, schedule: Q04DX003 (ip), vehicle: saline with Tween-80): 90 % of control
T/C (dose: 264.0 mg/kg/injection, schedule: Q04DX003 (ip), vehicle: saline with Tween-80): 100 % of control
T/C [13]: 90 % of control

O=C1C(CCO)SC(=S)N1c1ccccc1 (stereo unspecified)
T/C [4]: 106 % of control
T/C [5]: 103 % of control
T/C [6]: 102 % of control

CC/C(=C(\c1ccccc1)c1ccc(OCCN(C)C)cc1)c1ccccc1
T/C [12]: 122 % of control
T/C (dose: 50.0 mg/kg/injection, schedule: Q01DX009 (ip), vehicle: Klucel (hydroxypropylcellulose) (HPC)): 122 % of control
T/C [14]: 102 % of control and 108 % of control
